Values after ≈ are worked out from the molar mass of the structure shown.
tested on: KB; test: Cytotoxicity against human KB cells; format: functional, cell-based; conditions: Homo sapiens, KB; read-out: IC50; call rule not given here

SMILES	IC50
COC(=O)[C@]1(C)CCC[C@@]2(C)[C@H]1CC=C1C=C(C(C)C)C(=O)C[C@@H]12	12.5 µg/mL (≈ 37.8 µM)
COC(=O)[C@]1(C)CCC[C@]2(C)c3ccc(C(C)C)cc3C(=O)C[C@@H]12	4.5 µg/mL (≈ 13.7 µM)
COC(=O)[C@]1(C)CCC[C@]2(C)c3ccc(C(C)C)cc3[C@H](O)C[C@@H]12	5.8 µg/mL (≈ 17.6 µM)

same assay, conditions: kb

SMILES	IC50
CC(C)C(=O)CC[C@H]1C(C=O)=CC[C@@H]2[C@]1(C)CCC[C@@]2(C)C(=O)O	Not Active
CCO[C@@]1(C(C)C)C=C2[C@H](O)C[C@@H]3[C@](C)(CCC[C@@]3(C)C(=O)OC)[C@H]2CC1	Not Active
COC(=O)[C@]1(C)CCC[C@@]2(C)[C@H]1C[C@@H](O)C1=C[C@@](O)(C(C)C)CC[C@@H]12	Not Active
CC(C)(O)c1ccc2c(c1)[C@H](O)C[C@H]1[C@](C)(C(=O)O)CCC[C@]21C	Not Active
CC(C)C1=CC2=CC[C@@H]3[C@](C)(CCC[C@@]3(C)C(=O)O)[C@H]2CC1 [ABIETIC ACID]	Not Active
COC(=O)[C@]1(C)CCC[C@@]2(C)[C@H]1CC=C1C=C(C(C)C)CC[C@@H]12 [METHYL ABIETATE]	Not Active

— ChEMBL document CHEMBL1150126, “Oxidation products of abietic acid and its methyl ester” (J Nat Prod, 2002)
